Results from publication PMC11819603, “Development of a reliable, sensitive, and convenient assay for the discovery of new eIF5A hypusination inhibitors” (PLOS ONE, 2025).
Where two headings read alike, the source gives them in different places.

Legend:
DHPS [1] = molecular target: T1, DHPS (Homo sapiens, UniProt P49366); assay: Hyp'Assay: cell-free eIF5A hypusination in 96-well plates (recombinant eIF5A, DHPS, DOHH; anti-hypusine antibody Hpu24), substance present in the DHPS step; type: biochemical
T1 construct: host or cells: E. coli BL21 (DE3)
T1 sequence (P49366 1-369): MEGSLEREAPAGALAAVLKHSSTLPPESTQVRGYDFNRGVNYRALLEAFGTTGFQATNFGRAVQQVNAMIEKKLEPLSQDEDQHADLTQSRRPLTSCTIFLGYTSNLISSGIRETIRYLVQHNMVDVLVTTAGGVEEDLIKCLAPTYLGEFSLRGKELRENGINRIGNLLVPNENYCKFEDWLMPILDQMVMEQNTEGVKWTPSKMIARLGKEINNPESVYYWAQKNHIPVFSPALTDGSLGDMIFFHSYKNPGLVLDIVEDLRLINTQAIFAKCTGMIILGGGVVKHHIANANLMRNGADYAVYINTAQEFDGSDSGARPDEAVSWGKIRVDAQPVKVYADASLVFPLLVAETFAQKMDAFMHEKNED
Protocol: The principle of the Hyp’Assay (Fig 2A) is to perform eIF5A hypusination reaction in 96-well plates, allow eIF5A to adsorb to the plate, incubate with an anti-hypusine antibody and a secondary antibody conjugated to HRP and reveal hypusination using TMB as a substrate.
[…] Then 10 μL containing 1 μg of DOHH with 10 μM Fe^2+ (H8FeN2O8S2^. 6H2O) were added. After 1 h proteins were analyzed by Western Blot using antibodies toward DHPS, DOHH, Hypusine, and eIF5A.
(§1) The cell-free reaction described in 4.4 is performed in triplicates in a 96-wells plate (MaxiSorp, ThermoFisher) in the presence of 3 μg of eIF5A, 2 μg of DHPS, and 2 μg of DOHH by well. The reaction product, hypusinated eIF5A, is adsorbed onto the plate overnight at 4°C. The plate is washed (100 μL/well) thrice with PBS-T (PBS– 0.05% Tween20), then saturated with 1% non-fat dry milk in PBS-T for 2 h at room temperature. The plate is washed thrice with PBS-T and incubated overnight at 4°C with the anti-hypusine antibody (1:2000 in saturation buffer, 50 μL/well). The next day and after 5 washes with PBS-T, HRP-coupled anti-rabbit secondary antibody diluted 1:5000 in saturation buffer (50 μL/well) is added for 2 h at room temperature.

DHPS [2] = molecular target: T1, DHPS; assay: Hyp'Assay without DOHH: deoxyhypusination of eIF5A revealed with Hpu98 antibody; type: biochemical; settings: 5 μM spermidine
Excerpt: To address this issue, we compared the ability of GC7 to inhibit DHPS or DOHH by adding GC7 during the first step of the Hyp’Assay; when DHPS mediates the deoxyhypusination reaction (Fig 2A), or only during the second step, when DOHH hydroxylate deoxyhypusinated eIF5A. […] This confirms the specificity of GC7 towards DHPS. When finding new hypusination inhibitors adding them during the first or the second step of the Hyp’Assay will allow us to determine if the inhibition affects DHPS or DOHH. Another way to discriminate between DHPS or DOHH inhibitors would be to use Hpu98, an antibody that recognized both hypusinated and deoxyhypusinated eIF5A, instead of Hpu24, which is specific for hypusinated eIF5A [18]. […] We performed a new Hyp’Assay by omitting DOHH in the reaction mix and using the Hpu98 antibody. First, we performed a dose response experiment with spermidine at pH: 8.0 and 9.0 (Fig 3E). The Hyp’Assay allows the detection of deoxyhypusinated eIF5A in a spermidine-dependent manner. Under these conditions, deoxyhypusination was equally efficient at both pH tested. […] We also tested the ability of GC7 (Fig 3F) and CPX or EDTA (Fig 3G) to inhibit DHPS. […] This provided us with another method to distinguish between DHPS and DOHH inhibitors.
as §1

[3] = system: eIF5A hypusination in MCF7 cells; assay: eIF5A hypusination in intact MCF7 cells, Western blot; type: cell-based, human; settings: 24 h
Protocol: (§2) We tested the ability of the GC7 analogs to inhibit hypusination in intact cells. MCF-7 cells (Fig 5B), a classical model of breast cancer cell line, and HT29 cells (Fig 5C), a cell model of colorectal cancer, were treated with 40 μM of GC7, 1, 2, 3, and 4 for 24h. Cells were lysed and analyzed by Western blot. As observed, none of the molecules modified eIF5A expression. […] GC7 analogs inhibited hypusination from 35 to 55%.
The human breast cancer cell line MCF7 (HTB-22 ATCC) and colorectal adenocarcinoma HT29 (HTB-38 ATCC) were cultured in DMEM (Gibco) supplemented with 10% FBS (Dutscher), 10 U/mL penicillin, and […] streptomycin. 1 mM of aminoguanidine was added to the medium to inhibit the degradation of GC7 and polyamines by amine oxidase from the serum and the production of reactive oxygen species. Cells were maintained at 37°C, 5% CO2 in a humid atmosphere.
(§3) After treatment, cells were washed with ice-cold PBS and lysed in RIPA Buffer (50 mM Tris pH 7.5, 150 mM NaCl, 0.1% SDS, 0.5% Na Deoxycholate, 5 mM NaF, 2.5 mM Na4P2O7, 1% NP4O) containing a protease inhibitor cocktail (complete Roche). 10 μg of proteins were separated by SDS PAGE and transferred to a PVDF membrane (Immobilon-P Millipore). The membranes were probed with the appropriate primary antibody that was detected by horseradish peroxidase-conjugated secondary antibody (Jackson Immunoresearch) and visualized by chemiluminescence (ECL Amersham RPN 3244) using a Fuji LAS-4000 imager. ImageJ® software was used to quantify band intensity and the ratios of proteins of interest were normalized to a loading control. Full-length Western blots are provided in the supplementary data (S19, S20 Figs).

[4] = system: eIF5A hypusination in HT29 cells; assay: eIF5A hypusination in intact HT29 cells, Western blot; type: cell-based; settings: Homo sapiens, HT-29, 24 h
Protocol: as §2
The human breast cancer cell line MCF7 (HTB-22 ATCC) and colorectal adenocarcinoma HT29 (HTB-38 ATCC) were cultured in DMEM (Gibco) supplemented with 10% FBS (Dutscher), 10 U/mL penicillin, and 10 mg/mL streptomycin. […]
as §3, with “10 μg of proteins were separated by SDS PAGE and transferred to a PVDF membrane (Immobilon-P Millipore).” left out, “Full-length Western blots are provided in the supplementary data (S19, S20 Figs).” left out

DHPS [5] = settings: read-out: IC50 previously reported, cited from earlier work

With `N=C(N)NCCCCCCCN` [GC7, N1-guanyl-1,7-diaminoheptane] the “concentration at which inhibition was complete” value (DHPS [1]; 5 μM spermidine) was 1 µM, the “concentration at which inhibition was detectable” value (DHPS [1]; 5 μM spermidine) was 0.01 µM and the “concentration at which the inhibitory effect began” value (DHPS [1]; 100 μM spermidine) was 0.1 µM. For the same compound, the “concentration of maximal inhibitory effect” value (DHPS [1]; 100 μM spermidine) was 10 µM, the “Relative hypusination of eIF5A, Mean (quantification from Figure 3D)” value (DHPS [1]; GC7 added during the DHPS step, 5 μM spermidine, CTRL 100,0) was 4,227 a.u and the “hypusination signal, Mean (quantification from Figure 3A)” value (“hypusination signal, Mean” below) (DHPS [1]; Spermidine 5 µM, GC7 1 (µM)) was 54.02. For the same compound, the “hypusination signal, Mean” value (DHPS [1]; Spermidine 5 µM, GC7 10 (µM)) was 19.57, the “hypusination signal, Mean” value (DHPS [1]; Spermidine 5 µM, GC7 100 (µM)) was 16.79 and the “hypusination signal, Mean” value (DHPS [1]; Spermidine 5 µM, GC7 1000 (µM)) was 0.5077. For the same compound, the “hypusination signal, Mean” value (DHPS [1]; Spermidine 5 µM, GC7 10000 (µM)) was 0, the “hypusination signal, Mean” value (DHPS [1]; Spermidine 100 µM, GC7 1 (µM)) was 100 and the “hypusination signal, Mean” value (DHPS [1]; Spermidine 100 µM, GC7 10 (µM)) was 95.15. For the same compound, the “hypusination signal, Mean” value (DHPS [1]; Spermidine 100 µM, GC7 100 (µM)) was 91.8, the “hypusination signal, Mean” value (DHPS [1]; Spermidine 100 µM, GC7 1000 (µM)) was 51.9 and the “hypusination signal, Mean” value (DHPS [1]; Spermidine 100 µM, GC7 10000 (µM)) was 0.07615. The effect on hypusination (DHPS [1]; added during the first step (DHPS), 5 μM spermidine) was “total inhibition of hypusination”, the inhibition at 1 µM (DHPS [1]; at 1 µM, 5 µM spermidine (reviewer's reading of Fig. 3)) was ~95% and the “ability to inhibit deoxyhypusination” value (DHPS [2]) was “efficient in inhibiting deoxyhypusination”. The “Relative deoxyhypusination of eIF5A, Mean (quantification from Figure 3F, 3G)” value (DHPS [2]; CTRL 100,0, inhibitor concentration not given) was 7,531 a.u, the “hypusinated eIF5A, Western blot quantification, Mean (Figure 5B)” value ([3]; 40 μM, Ctrl 100, 4 experiments) was 20.45 and the inhibition at 40 µM ([3]; Homo sapiens) was 80%. For the same compound, the inhibition at 40 µM [4] was 80%, the IC50 (DHPS [5]; ref 25) was 17 nM and the IC50 (DHPS [5]; ref 26) was 50 nM.
